The values below come from US20260365696A1, “INHIBITORS OF PTP1B / NCK1 INTERACTION AND METHODS OF MAKING AND USING SAME” (Radella Pharmaceuticals LLC, priority 2023, published 2026).

One data set deals with db/db mice. Briefly: db/db genetic mouse model of diabetes and obesity. The class given is in vivo. The source says:
Animals: All animals were housed and tested following European (Directive on the Protection of Animals used for Scientific Purposes, 2010/63/EU) and UK Home Office regulations. Experiments were approved by the University Ethics Board and carried out in accordance with the Animal (Scientific Procedures) Act 1986 and following ARRIVE guidelines. Db/db male mice (~4 weeks old) were purchased from Jackson, USA. All mice received standard mouse chow diet and had ad libitum access to food and water and were kept in a 12 h light/dark cycle.
Treatments: Mice were assigned and counterbalanced according to their body weights in to the following groups: control PBS (n=10); MD18 at 15 mg/kg (n=7), 30 mg/kg (n=8), or 45 mg/kg (n=7); or MD20 at 15 mg/kg (n=9), 30 mg/kg (n=10) or 45 mg/kg (n=7). MD18 and MD20 were administered once daily via subcutaneous (SC) injection for 41 days, whereas control mice received a daily SC injection of vehicle (PBS). MD18 and MD20 were kept in −20 °C and dissolved in sterile phosphate buffered saline (PBS).
Body weights and body mass composition: Body weights were recorded twice weekly during the study, and fat mass and lean mass composition was analysed using an EchoMRI scanner (EchoMedical Systems, Houston, TX, U.S.A.).
Metabolic measurements: All animals were five-hour fasted before obtaining basal glucose measurements and GTT, ITT, and corresponding treatments were administered 1 hour before glucose measurements. Tail blood glucose was measured using AlphaTRAK 2 glucose strips and glucometer (Abbot, UK), or blood was collected and glucose assay (AB65333, Abcam) was performed where readings were too high to be recorded via glucometer. Human Actrapid Insulin (NovaNordisk) at 1 IU/kg dose was administered during ITT.
Serum and liver assays: Trunk-derived blood was collected from 5 h-fasted mice into serum separator microtubes and kept at −80 °C. Serum was used for insulin (#EZRMI-13K, Merck) and leptin (#90030, Crystal Chem) analyses.
Statistical analyses: Data were reported as means±SEM and analysed using one- or two-way ANOVA with Bonferroni post hoc tests, as appropriate. GraphPad Prism (V8, GraphPad Software, Inc., San Diego, California, USA) was used for statistical analyses. P-values <0.05 were considered significant.

The next data set has as its system ATF4. Put plainly: ATF4 gene expression in liver of LDLR−/− mice (qPCR). The format is in vivo, mouse. As to conditions: 30 mg/kg IP daily, vs control. The method, then:
FIGS. 30A-30E are graphs showing expression of various genes in tissues of HFD-fed LDLR−/− mice following 6 weeks of daily IP administration of MD20 (30 mg/kg) or a vehicle control. Mice were fasted for 5 hours at the conclusion of the experiment, liver and white adipose tissue (“WAT”) samples were collected, and gene expression was measured by qRT-PCR. Expression of glucose transporter 4 (GLUT4; FIG. 30A) and stearoyl-CoA-desaturase 1 (SCD1; FIG. 30B) was measured in adipose tissue, and expression of Glucose-6-phosphatase (G6P; FIG. 30C), Activating Transcription Factor 4 (ATF4; FIG. 30D), and 3-hydroxy-3-methylglutaryl (HMGCS; FIG. 30E) was measured in liver tissue. Data represent mean±SEM; statistical differences were determined using two tailed student's t-test.
Gene expression analyses: Livers and adipose tissue were collected from 5 h-fasted animals and snap-frozen in liquid nitrogen. RNA was isolated from frozen liver tissue using TRIzole (Sigma, UK) and cDNA was synthesized from 1 μg RNA using bioscript cDNA synthesis kit (Bioline, UK), oligo (dT) 18 (SEQ ID NO: 170), and random hexamer primers.
Genes of interest were amplified by quantitative PCR (qPCR) using gene-specific primers and GoTaq qPCR master mix (Promega, Madison, WI, USA).

Data set [1] is described as follows: Caco-2 permeability assay. The class given is in vitro ADME, human. As to conditions: human, Papp(B-A)/Papp(A-B), 120 min. On the procedure:
(§1) Permeability (Caco-2 assay): Caco 2 cells were used as an in vitro model of the human intestinal epithelium and to permit assessment of the intestinal permeability of potential drugs. Test compound was added to either the apical or basolateral side of a confluent monolayer of Caco 2 cells and permeability was measured by monitoring the appearance of the test compound on the opposite side of the monolayer using LC-MS/MS. When performing a bi-directional assay, the efflux ratio (ER) was calculated from the ratio of B-A and A-B permeabilities.
(§2) Briefly, Caco 2 cells obtained (ATCC) were used between passage numbers 40 and 60. Cells were seeded on to Transwell plates at 1×10^5 cells/cm^2. The cells were cultured in DMEM and media was changed every two or three days. On day 20, the permeability study was performed. […]
(§3) Test and control compounds were quantified by LC-MS/MS cassette analysis using a 7-point calibration with appropriate dilution of the samples. […] The starting concentration (C0) was determined from the dosing solution and the experimental recovery was calculated from C0 and both apical and basolateral compartment concentrations.
(§4) Data Analysis: The permeability coefficient (Papp) for each compound was calculated from the following equation: […]
(§5) For bi directional experiments, an efflux ratio (ER) was calculated from mean A-B and B-A data using the following equation: […]

Another data set relates to Caco-2 cells. Briefly: Caco-2 permeability assay. The class given is in vitro ADME, human. On the procedure: as §1, §2, §3, §4, §5

Turning to Ac-PRPPKR-NH2 [MD20, Ac-PRPPKR-NH2], the fasted insulin levels entry in the data set on db/db mice (15 mg/kg SC daily, about 6 weeks, vs control) is “significant decrease in insulin levels”. Also, the leptin levels entry with db/db mice (30 mg/kg SC daily, about 6 weeks, vs control) is listed as “significant decrease in leptin levels”. In addition, the basal glucose levels result with db/db mice (5-hour-fasted, SC daily, vs vehicle) is listed as “No significant differences”. The body weight gain entry in the data set with db/db mice (15, 30 or 45 mg/kg SC daily, significant overall interaction) is given as “inhibited body weight gain”. In addition, in the data set on db/db mice (SC daily, week 4, vs control, all doses), the “glucose clearance during GTT” value was “No significant differences in glucose clearance”. Moreover, in the data set on db/db mice (SC daily, week 6, 1 IU/kg insulin, vs control), the “insulin tolerance test (ITT)” value is on record as “did not detect any significant differences”. For the same substance, the “ATF4 expression in liver” value in the data set on ATF4 is given as “decreased”. Moreover, the efflux ratio at 2 h in data set [1] came to 0.252. Also, the “permeation of cells relative to antihypertensive drugs” value in the data set on Caco-2 cells is reported as “able to permeate the cells at the same rate as some antihypertensive drugs (e.g., nicardipine)”.
